Measurements published in US20250263370A1 (Tay Therapeutics Limited, priority 2022, published 2025).
Like-named read-outs stand apart in the source and are kept apart here.

Test: Beagle dog PK study 1 of Example 101 (propylene glycol-based formulation, IV and PO), with clinical observations
Assay type: in vivo
Conditions: for concentration at 0.083 h / concentration at 0.25 h / concentration at 0.5 h / concentration at 1 h / concentration at 2 h / concentration at 4 h / concentration at 8 h / concentration at 24 h / AUC(0-inf) / AUC(0-t) / C0 / half-life / MRT inf / Vd / Cmax / Tmax: beagle, dog, plasma; for concentration at 0.083 h / concentration at 0.25 h / concentration at 0.5 h / concentration at 1 h / concentration at 2 h / concentration at 4 h / concentration at 8 h / concentration at 24 h: dog PK study 1, IV; for MRT inf: read-out: MRTInf—obs; for Vd: read-out: Vss—obs; for animal's temperature: test animal 3 in group 1 (1 mg/kg IV)
Procedure: The purpose of this study was to examine the pharmacokinetics of Example 101 in beagle dogs. […] An oral PK study was also undertaken in Lewis rats—see Experimental Method C.
Body weight was recoded prior to dosing, and detailed clinical observations were made prior to dosing and throughout the study, as needed.
Subsequently, 17.320 mL Vitamin E TPGS was added, and the solution was vortexed and sonicated. Then, 51.960 mL water was added, and solution was then heated. […] Subsequently, 39.894 mL Vitamin E TPGS was added, and the solution was vortexed and sonicated. Then, 119.682 mL water was added, and the solution was heated.
Blood samples (˜0.3 mL) were collected according to a schedule (detailed below) by venipuncture of peripheral veins except for the dosing vein, and EDTA-K2 was used as anticoagulant. Within 30 minutes of collection, the samples were centrifuged at approximately 2000×g for 10 minutes at 4° C. to obtain blood plasma. The plasma samples were immediately divided into two aliquots (˜75 μL each), transferred to a cryogenic vial, and stored in a freezer at −75±15° C. prior to analysis. […]
The experiments were conducted on a Shimadzu DGU-20A5R and AB API 5500+LC/MS/MS instrument with an Agilent Poroshell EC-C18 4 μm (50×2.1 mm) column. A gradient of 95% water (0.1% formic acid)/95% acetonitrile (0.1% formic acid) was used as the mobile phase. The sample injection volume was 1 μL, and the flow rate was 0.6 mL/min. The gathered data were used for pharmacokinetic calculations using T½, C0, AUClast, AUCinf, MRTinf, CI, Vss, and Number of Points for Regression as parameters.

[1] = iv, 1 mg/kg, Test Animal 1, read-out: Plasma concentration
[2] = iv, 1 mg/kg, Test Animal 2, read-out: Plasma concentration
[3] = iv, 1 mg/kg, Test Animal 3, read-out: Plasma concentration
[4] = iv, 1 mg/kg, mean, read-out: Average plasma concentration, Mean
[5] = iv, 1 mg/kg, dog PK study 1, intravenous, Test Animal 1
[6] = iv, 1 mg/kg, dog PK study 1, intravenous, Test Animal 2
[7] = iv, 1 mg/kg, dog PK study 1, intravenous, Test Animal 3
[8] = iv, 1 mg/kg, dog PK study 1, intravenous, mean
[9] = po, 5 mg/kg, dog PK study 1, oral, Test Animal 1
[10] = po, 5 mg/kg, dog PK study 1, oral, Test Animal 2
[11] = po, 5 mg/kg, dog PK study 1, oral, Test Animal 3
[12] = po, 5 mg/kg, dog PK study 1, oral, mean
[13] = dog PK study 1, intravenous, Test Animal 1
[14] = dog PK study 1, intravenous, Test Animal 2
[15] = dog PK study 1, intravenous, Test Animal 3
[16] = dog PK study 1, intravenous, mean
[17] = dog PK study 1, oral, Test Animal 1
[18] = dog PK study 1, oral, Test Animal 2
[19] = dog PK study 1, oral, Test Animal 3

CNC(=O)c1[nH]c(C(=O)NC2CCC2)cc1O[C@@H](C)c1ccccc1 (stereo in doubt) [Example 101, N^5-cyclobutyl-N^2-methyl-3-(1-phenylethoxy)-1H-pyrrole-2,5-dicarboxamide]
plasma concentration as a function of time (FIG. 1A) (beagle dogs, 1 mg/kg IV, group 1): Decreases in plasma concentration were consistent across all animals and timepoints | time post-administration at which plasma concentrations began to steadily decrease (FIG. 1B) (beagle dogs, 5 mg/kg PO, group 2): approximately 1 h | tolerability (beagle dogs, PK studies 1 and 2, oral and intravenous): capable of being administered orally and intravenously and well tolerated | concentration at 0.083 h [1]: 1340 ng/mL | concentration at 0.083 h [2]: 1320 ng/mL | concentration at 0.083 h [3]: 1370 ng/mL | concentration at 0.083 h [4]: 1340 ng/mL | concentration at 0.25 h [1]: 1120 ng/mL | concentration at 0.25 h [2]: 954 ng/mL | concentration at 0.25 h [3]: 1110 ng/mL | concentration at 0.25 h [4]: 1060 ng/mL | concentration at 0.5 h [1]: 1040 ng/mL | concentration at 0.5 h [2]: 747 ng/mL | concentration at 0.5 h [3]: 867 ng/mL | concentration at 0.5 h [4]: 885 ng/mL | concentration at 1 h [1]: 623 ng/mL | concentration at 1 h [2]: 580 ng/mL | concentration at 1 h [3]: 520 ng/mL | concentration at 1 h [4]: 574 ng/mL | concentration at 2 h [1]: 314 ng/mL | concentration at 2 h [2]: 265 ng/mL | concentration at 2 h [3]: 313 ng/mL | concentration at 2 h [4]: 297 ng/mL | concentration at 4 h [1]: 81.6 ng/mL | concentration at 4 h [2]: 56.5 ng/mL | concentration at 4 h [3]: 68 ng/mL | concentration at 4 h [4]: 68.7 ng/mL | concentration at 8 h [1]: 15.7 ng/mL | concentration at 8 h [2]: 3.65 ng/mL | concentration at 8 h [3]: 4.61 ng/mL | concentration at 8 h [4]: 8 ng/mL | concentration at 24 h [1]: 0 ng/mL | concentration at 24 h [2]: 0 ng/mL | concentration at 24 h [3]: 0 ng/mL | concentration at 24 h [4]: 0 ng/mL | AUC(0-inf) [5]: 2100 ng·h/mL | AUC(0-t) [5]: 2070 ng·h/mL | C0 [5]: 1460 ng/mL | half-life [5]: 1.42 h | MRT inf [5]: 1.54 h | Vd [5]: 0.734 L/kg | AUC(0-inf) [6]: 1720 ng·h/mL | AUC(0-t) [6]: 1720 ng·h/mL | C0 [6]: 1550 ng/mL | half-life [6]: 0.976 h | MRT inf [6]: 1.29 h | Vd [6]: 0.747 L/kg | AUC(0-inf) [7]: 1870 ng·h/mL | AUC(0-t) [7]: 1860 ng·h/mL | C0 [7]: 1520 ng/mL | half-life [7]: 0.992 h | MRT inf [7]: 1.35 h | Vd [7]: 0.719 L/kg | AUC(0-inf) [8]: 1900 ng·h/mL | AUC(0-t) [8]: 1880 ng·h/mL | C0 [8]: 1510 ng/mL | half-life [8]: 1.13 h | MRT inf [8]: 1.39 h | Vd [8]: 0.733 L/kg | AUC(0-t) [9]: 4520 ng·h/mL | Cmax [9]: 2220 ng/mL | Tmax [9]: 1 h | AUC(0-inf) [10]: 2960 ng·h/mL | AUC(0-t) [10]: 2930 ng·h/mL | Cmax [10]: 1550 ng/mL | Tmax [10]: 0.5 h | half-life [10]: 1.15 h | MRT inf [10]: 1.62 h | AUC(0-inf) [11]: 5010 ng·h/mL | AUC(0-t) [11]: 5000 ng·h/mL | Cmax [11]: 2240 ng/mL | Tmax [11]: 1 h | half-life [11]: 0.845 h | MRT inf [11]: 1.83 h | AUC(0-inf) [12]: 3980 ng·h/mL | AUC(0-t) [12]: 4150 ng·h/mL | Cmax [12]: 2000 ng/mL | Tmax [12]: 0.83 h | half-life [12]: 1 h | MRT inf [12]: 1.73 h | AUClast/D [13]: 2066 (ng · h/mL)/(mg/kg) | AUC—% Extrap—obs [13]: 1.54% | Cl_obs [13]: 7.94 mL/min/kg | AUClast/D [14]: 1718 (ng · h/mL)/(mg/kg) | AUC—% Extrap—obs [14]: 0.298% | Cl_obs [14]: 9.67 mL/min/kg | AUClast/D [15]: 1864 (ng · h/mL)/(mg/kg) | AUC—% Extrap—obs [15]: 0.353% | Cl_obs [15]: 8.91 mL/min/kg | AUClast/D [16]: 1883 (ng · h/mL)/(mg/kg) | AUC—% Extrap—obs [16]: 0.73% | Cl_obs [16]: 8.84 mL/min/kg | AUClast/D [17]: 903 (ng · h/mL)/(mg/kg) | F [17]: 48.0% | AUClast/D [18]: 586 (ng · h/mL)/(mg/kg) | AUC—% Extrap—obs [18]: 0.831% | F [18]: 31.1% | AUClast/D [19]: 1000 (ng · h/mL)/(mg/kg) | AUC—% Extrap—obs [19]: 0.232% | F [19]: 52.8% | AUClast/D (dog PK study 1, oral, mean): 830 (ng · h/mL)/(mg/kg) | AUC—% Extrap—obs (dog PK study 1, oral, mean): 0.531% | F (dog PK study 1, oral, mean): 44.0% | animal's temperature (4 h timepoint): 36.4 °C | animal's temperature (6 h timepoint): 38.1 °C
